According to patent publication US12370143B2, “Compound or salt thereof and lipid particles” (FUJIFILM Corporation, priority 2018, dated 2025):

Key:
[1] = Particle size of lipid particles (no nucleic acid); type: physicochemical; details: lipid particles without nucleic acid; compound/DSPC/cholesterol/DMG-PEG2000 molar ratio 50/10/38.5/1.5; ELS-Z2
Procedure: The compounds described in Examples 1, 9, and 10,1,2-distearoyl-sn-glycero-3-phosphocholine (trade name: COATSOME® MC-8080; NOF corporation), cholesterol (trade name: Cholesterol HP; NIPPON FINE CHEMICAL CO., LTD.), and 1,2-dimyristoyl-rac-glycero-3-(methylpolyoxyethylene 2000) (hereinafter, called DMG-PEG2000) (trade name: SUNBRIGHT® GM-020; NOF corporation) were dissolved in ethanol at a molar ratio of 50/10/38.5/1.5 such that the total lipid concentration became 20 mmol/L, thereby obtaining an oil phase.
A 10 mmol/L acetate buffer having a pH of 4 was used as a water phase and mixed with the oil phase by a micromixer (see JP5288254B) using a syringe pump such that the volume ratio of water phase:oil phase became 6.7:3.3. The mixed solution was diluted 2× with a phosphate buffered saline (PBS), thereby obtaining a dispersion liquid of lipid particles. The dispersion liquid was dialyzed using a dialysis cassette (Slide-A-Lyzer G2, MWCO: 10 kD, Thermo Fisher Scientific) including PBS such that ethanol was removed, thereby obtaining lipid particles containing the compounds described in Examples 1, 9, and 10.
By using the dispersion liquid of lipid particles as it was, the particle size of the lipid particles was measured using a zeta potential/particle size measurement system ELS-Z2 (Otsuka Electronics Co., Ltd.).

[2] = Particle size of nucleic acid lipid particles (Luc2-siRNA); type: physicochemical; details: compound/DSPC/cholesterol/DMG-PEG2000 50/10/38.5/1.5
How it was run: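 Lipid particles formed from oil phase (test lipid/DSPC/cholesterol/DMG-PEG2000, 50/10/38.5/1.5 molar, 20 mmol/L total in ethanol) micromixed 1:3 with Luc2-siRNA in pH 4 acetate buffer (19.7 μmol/L); siRNA/lipid 339 mol/mol, PBS-diluted and dialyzed. Size measured on ELS-Z2 dynamic light scattering.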

[3] = Encapsulation rate of siRNA in nucleic acid lipid particles (Luc2-siRNA); type: physicochemical; details: compound/DSPC/cholesterol/DMG-PEG2000 50/10/38.5/1.5
How it was run: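 Encapsulation rate was calculated as (total − outer-phase siRNA)/total ×100. Total siRNA was quantified spectrophotometrically after lipid-dissolving ethanol precipitation, and unencapsulated siRNA by RiboGreen in TE (ex 485/em 535 nm). The particles were test lipid/DSPC/cholesterol/DMG-PEG2000 at 50/10/38.5/1.5, formed by microfluidic mixing with Luc2-siRNA at pH 4 and dialyzed against PBS.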

[4] = test system: DMS273 cells constantly expressing Luc; assay: Target reporter protein (Luc) knockdown in cell, reporter protein assay; type: cell-based; details: Homo sapiens, DMS-273; Luc2-siRNA lipid particles using the compound; siRNA 0.1 to 100 nmol/L; concentration at which Luc expression is knocked down to 50%; read-out: IC50
How it was run: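 Nucleic acid lipid particles added at final 0.1 to 100 nmol/L to DMS273 human SCLC cells stably expressing Luc2, 24 hr exposure then 24 hr further culture after medium change. Luc quantified by Steady Glo luminescence after viable cell count; knockdown efficiency calculated and IC50 taken as concentration giving 50% Luc reduction.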

[5] = test system: Factor VII (FVII) protein; assay: Measurement of Factor VII (FVII) protein in mouse plasma after FVII-siRNA lipid particles; type: in vivo, C57BL6/J mice; details: 0.1 mg/kg caudal vein, plasma 24 hours after administration, PBS group = 100%
How it was run: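 C57BL6/J mice (n=3) received FVII-siRNA nucleic acid lipid particles at 0.1 mg/kg into the tail vein; controls got PBS. Each value is the percentage of the PBS-group FVII level.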

[6] = Particle size of nucleic acid lipid particles (FVII-siRNA); type: physicochemical
How it was run: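 Lipid particles formed by micromixing ethanolic ionizable lipid/DSPC/cholesterol/DMG-PEG2000 (50/10/38.5/1.5 mol) with siRNA in pH 4 acetate buffer (3:1 water:oil), diluted with PBS and dialysed against PBS.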

[7] = Nucleic acid encapsulation rate of nucleic acid lipid particles (FVII-siRNA); type: physicochemical
How it was run: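 Total nucleic acid was measured by adding 30 μL of 3 mol/L sodium acetate and 9 μL of glycogen to 60 μL of FVII-siRNA lipid particles, then precipitating with 1.5 mL ethanol, centrifuging, air-drying, redissolving in water, and reading on a Nanodrop. Outer-phase nucleic acid came from a RiboGreen assay (ex 485 nm, em 535 nm) on samples diluted 10,000× in 1×TE. Encapsulation (%) = (total − outer)/total × 100.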

| Structure (SMILES) | Particle size (nm) [1] [nm] | Particle size (nm) [2] [nm] | Nucleic acid encapsulation rate [3] [%] | IC50 [4] [nM] | Particle size (nm) [6] [nm] | Nucleic acid encapsulation rate [7] [%] | Relative amount of FVII protein (%) [5] [%] |
| --- | --- | --- | --- | --- | --- | --- | --- |
| CCCCC/C=C\C/C=C\CCCCCCCCN(CCCCCCCC/C=C\C/C=C\CCCCC)C(=O)OCCN(C)CCN(C)C [Example 1, 2-((2-(dimethylamino)ethyl)(methyl)amino)ethyl di((9Z,12Z)-octadeca-9,12-dien-1-yl)carbamate] | 145.9 | 66.4 | 84 | 13 | – | – | – |
| CCCCC/C=C\C/C=C\CCCCCCCCN(CCCCCCCC/C=C\C/C=C\CCCCC)C(=O)OCCNCCN [Example 9, 2-((2-aminoethyl)amino)ethyl di((9Z,12Z)-octadeca-9,12-dien-1-yl)carbamate] | 127.5 | 79.5 | 92 | 21 | – | – | – |
| CCCCCCCCCCCCCCCCN(CCCCCCCCCCCCCCCC)C(=O)OCCN(C)CCN(C)C [Example 10, 2-((2-(Dimethylamino)ethyl)(methyl)amino)ethyl dihexadecylcarbamate] | 111.2 | 159.9 | 80 | – | – | – | – |
| CCCCCCCCCCCCC(CCCCCCCCCC)COC(=O)CCCC(CCCCCC)OC(=O)OCCN(CCN(CC)CC)C(C)C (centres unmarked) [Example 113, 2-Decyltetradecyl 3-ethyl-12-hexyl-6-isopropyl-10-oxo-9,11-dioxa-3,6-diazahexadecan-16-oate] | – | 67.8 | 82 | 21 | 66.1 | 100 | 4 |
| CCCCCCCC/C=C\CCCCCCCC(=O)OCCN(CCOC(=O)OC(CCCCCC)CCCCCCCCC(=O)OCC(CCCCCC)CCCCCCCC)CCN(CC)CC (centres unmarked) [Example 118, 2-Hexyldecyl 3-ethyl-12-hexyl-6-(2-(oleoyloxy)ethyl)-10-oxo-9,11-dioxa-3,6-diazahenicosan-21-oate] | – | 93.6 | 90 | 35 | 80.5 | 64 | 9 |

Continued, in another order:

| Particle size (nm) [1] [nm] | Particle size (nm) [2] [nm] | Nucleic acid encapsulation rate [3] [%] | IC50 [4] [nM] | Particle size (nm) [6] [nm] | Nucleic acid encapsulation rate [7] [%] | Structure (SMILES) | Relative amount of FVII protein (%) [5] [%] |
| --- | --- | --- | --- | --- | --- | --- | --- |
| – | 67.8 | 89 | 31 | 66.3 | 69 | CCCCCCCC/C=C\CCCCCCCC(=O)OCCN(CCOC(=O)OC(CCCCCC)CCCC(=O)OCC(CCCC)CCCCCC)CCN(CC)CC (centres unmarked) [Example 119, 2-Butyloctyl 3-ethyl-12-hexyl-6-(2-(oleoyloxy)ethyl)-10-oxo-9,11-dioxa-3,6-diazahexadecan-16-oate] | 5 |
| – | 66.5 | 90 | 27 | 68.1 | 66 | CCCCCCCC/C=C\CCCCCCCC(=O)OCCN(CCOC(=O)OC(CCCCCC)CCCC(=O)OCC(CCCCCC)CCCCCCCC)CCN(CC)CC (centres unmarked) [Example 120, 2-Hexyldecyl 3-ethyl-12-hexyl-6-(2-(oleoyloxy)ethyl)-10-oxo-9,11-dioxa-3,6-diazahexadecan-16-oate] | 6 |
| – | 63.2 | 91 | 39 | 65.8 | 70 | CCCCCCCCCCC(CCCCCCCC)COC(=O)CCCCCCCCC(CCCCCC)OC(=O)OCCN(CCN(CC)CC)C(C)C (centres unmarked) [Example 121, 2-Octyldodecyl 3-ethyl-12-hexyl-6-isopropyl-10-oxo-9,11-dioxa-3,6-diazahenicosan-21-oate] | 10 |
| – | 69.5 | 83 | 19 | 80.7 | 84 | CCCCCCCOC(=O)CCN(CCOC(=O)OC(CCCCCC)CCCCCCCCC(=O)OCC(CCCC)CCCCCC)CCN(CC)CC (centres unmarked) [Example 122, 2-Butyloctyl 3-ethyl-6-(3-(heptyloxy)-3-oxopropyl)-12-hexyl-10-oxo-9,11-dioxa-3,6-diazahenicosan-21-oate] | 3 |
| – | 70.2 | 63 | 41 | 76.4 | 58 | CCCCCCCC(=O)OCCN(CCOC(=O)OC(CCCCCC)CCCCCCCCC(=O)OCC(CCCCC)CCCCC)CCN(CC)CC (centres unmarked) [Example 129, 2-Pentylheptyl 3-ethyl-12-hexyl-6-(2-(octanoyloxy)ethyl)-10-oxo-9,11-dioxa-3,6-diazahenicosan-21-oate] | 4 |
